Experimental data from patent US20170029388A1, “Treatment of Neurodegenerative Diseases with Asparagine Endopeptidase (AEP) Inhibitors and Compositions Related Thereto” (INTERCONTINENTAL GREAT BRANDS LLC, priority 2014, published 2017).

How the values were obtained:
AEP = target: T1, AEP (Homo sapiens, UniProt Q99538); assay: Time course inactivation assays (progress curves); type: biochemical
T1 construct: tested with purified active AEP, IC50 values for the top 8 candidates were found; purchased Sino Biological
T1 sequence (Q99538 18-323 limits assumed): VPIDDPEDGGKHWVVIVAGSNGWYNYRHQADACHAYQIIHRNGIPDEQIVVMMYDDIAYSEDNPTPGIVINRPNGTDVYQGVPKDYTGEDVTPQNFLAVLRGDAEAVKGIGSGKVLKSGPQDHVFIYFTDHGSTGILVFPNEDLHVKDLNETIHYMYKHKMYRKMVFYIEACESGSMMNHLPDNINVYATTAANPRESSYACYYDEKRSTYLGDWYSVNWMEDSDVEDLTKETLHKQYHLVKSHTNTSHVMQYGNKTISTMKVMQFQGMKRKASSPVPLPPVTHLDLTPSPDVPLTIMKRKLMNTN
Description: KI values for each inhibitor were determined by global fits to the competitive inhibition equation. C. Time course inactivation assays were used to generate progress curves, depicting product formation as a function of time. […] E. Time course inactivation assays were used to generate progress curves, depicting product formation as a function of time. Pseudo first-order rate constants were obtained at each concentration of compound BB1. F. Re-plot of the pseudo first-order rate constants, kobs, vs. the concentration of compound BB1.
To continue to assess the mechanism utilized by the compounds to inhibit AEP, the inhibition kinetics were determined for compound, 11, as well as compound BB1, in an attempt to confirm that the thiol moiety is competitively inhibiting the enzyme. […] The resulting Michaelis-Menten plots for each compound seem be indicative of competitive inhibition. […] Since BB1 contains a thiol group, it can form a disulfide bond with the active-site cysteine of AEP. […] Additionally, plotting the pseudo-first-order rate constants of inhibition, kobs, which were determined from the progress curves, yielded a hyperbolic curve, consistent with a two-step mechanism of inactivation (FIG. 6D). […] However, the kobs versus inhibitor concentration plot yielded a straight line, maybe due to the rapid disulfide formation reaction (FIG. 6F).
Progress curves were generated by incubating 5 μM Z-AAN-AMC and the specified concentration of inhibitor in assay buffer at 37° C. for 10 min. The reaction was initiated by the addition of 50 nM AEP and quenched after 10 min. The concentration of the product was determined from an AMC standard curve and the data was fit by nonlinear regression. Since the curves were nonlinear, they were fit to equation 5, using the GraFit version 5.0.11 software package, […]
[Product]=νi(1−e^−kobs.app*t)/kobs.app (eq 5), where νi is the initial velocity, kobs.app is the apparent pseudo-first order rate constant for inactivation, and t is time. […]

C57BL/6J mice = assay: Acute and chronic toxicity in C57BL/6J mice; details: 100 mg/kg
CYP3A = assay: CYP inhibition screening, CYP3A-Testosterone; type: in vitro ADME
Cathepsin-L = Cathepsin-L (Homo sapiens, UniProt P07711); assay: Cathepsin-L enzymatic assay (specificity); type: biochemical
Description: Purified recombinant enzyme was incubated with various concentrations of inhibitor in appropriate assay buffers in the presence of increasing concentrations of inhibitor. The formation of fluorescent product was monitored in duplicate reactions and the data was fit to appropriate equations to calculate the IC50 values.
To identify small-molecule inhibitors of AEP, a high-throughput screen was designed in conjunction with the Emory Chemical Biology Discovery Center. The screen incorporated mouse kidney lysates to assay a 54,384 compound library. […] Additional structural analysis and grouping allowed the compounds to be sorted into 8 distinct backbone families. […] The specificity of the compounds was also determined using four major cysteine proteases (FIG. 2).
Cathepsin-L—100 nM enzyme was pre-incubated with inhibitor in assay buffer (100 mM Sodium Acetate pH 5.5, 1 mM EDTA) for 10 min at 37° C. The reaction was initiated upon addition of 25 μM substrate (D-Val-Leu-Lys-AMC (Bachem)).

[1] = target: T2, AEP in human B lymphoblastoid Pala cells (Homo sapiens, UniProt Q99538); assay: IC50 assays in intact Pala cells; type: cell-based; details: 2 hr incubation, residual AEP activity in lysate
T2 construct: human B lymphoblastoid pala cells, which are rich in endogenous AEP; endogenous in cells; host or cells: Pala cells (human B lymphoblastoid)
Description: The cells were incubated with inhibitors for 2 hrs then cells washed, harvested and lysed and the residual enzymatic activity was determined. Lysate was normalized by Bradford assay and the experiment was performed in triplicate and the mean results and SEM were plotted.
In an attempt to assess the activity of the compounds in intact cells, the compounds were incubated with human B lymphoblastoid pala cells, which are rich in endogenous AEP and have been used for inhibiting AEP in cellular assay.
Human B Lymphoblastoid Pala cells, which express high concentrations of AEP, were cultured in RPMI-1640, supplemented with 10% FBS, 2 mM L-Glutamine, 100 units/mL Penicillin, 100 μg/mL Streptomycin. Various concentrations of each compound were incubated with the Pala cells for 2 hr at 37° C. Cells were collected, washed twice with PBS and lysed in Lysis Buffer (20 mM Citric Acid, 60 mM Disodium Hydrogen Orthophosphate, 1 mM EDTA, 0.1% CHAPS, pH 5.8). The protein concentrations were normalized by Bradford assay and lysates were assayed with 5 μ,M Cbz-Ala-Ala-Asn-AMC. […] Data were analyzed with GraFit version 5.0.11 software package.

Sequence of Cathepsin-L (P07711 114-333, species assumed): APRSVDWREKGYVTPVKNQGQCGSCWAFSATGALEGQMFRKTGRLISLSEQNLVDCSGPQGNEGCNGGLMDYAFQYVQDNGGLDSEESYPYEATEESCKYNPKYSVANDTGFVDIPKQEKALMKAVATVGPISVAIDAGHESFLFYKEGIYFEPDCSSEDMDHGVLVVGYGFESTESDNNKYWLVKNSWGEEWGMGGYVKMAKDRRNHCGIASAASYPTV

Question: With `Nc1ccc(N2CCOCC2)c2nonc12` [Compound 11] as the molecule, how does the “type of inactivation from progress curves” value (AEP) read?
Answer: Its value is “irreversibly inactivates AEP”.

Question: What about the systemic toxicity (C57BL/6J mice) of the same molecule?
Answer: Its systemic toxicity is “does not exhibit systemic toxicity”.

Question: What about the body weight (C57BL/6J mice; oral gavage, 30-day period) of the same molecule?
Answer: The body weight was “no significant change”.

Question: What about the “complete blood count (CBC) parameters” value (C57BL/6J mice; oral gavage, 30-day period) of the same molecule?
Answer: The value was “within the normal range”.

Question: And the “immunohistochemical staining, drug-treated vs vehicle-treated” value (C57BL/6J mice; oral gavage, 30-day period)?
Answer: The value was “no major differences”.

Question: What about the “CYP inhibition, CYP3A-Testosterone” value (CYP3A; test concentration 3 μM) of the same molecule?
Answer: The value was 4.1%.

Question: And the “CYP inhibition, CYP3A-Testosterone” value (CYP3A; test concentration 10 μM)?
Answer: The value was 21.6%.

Question: Which results are given for `Cn1c(=O)[nH]c(=O)c2c1nc(S)n2CC(O)COc1ccc(Cl)cc1` (stereo not shown) [Compound 38]?
Answer: CYP inhibition, CYP3A-Testosterone (CYP3A; test concentration 3 μM): −6.0%; CYP inhibition, CYP3A-Testosterone (CYP3A; test concentration 10 μM): 2.4%

Question: `Sc1nnc(Nc2ccccc2)s1` [Compound BB1] was tested. Which “type of inactivation from progress curves” value (AEP) did it give?
Answer: The value was “slow-binding inhibitor”.

Question: And the “second-order rate constant of inhibition, kinact/KI” value (AEP; slope of kobs versus inhibitor concentration)?
Answer: The value was 55000 M⁻¹ s⁻¹.

Question: What about the “selectivity for AEP over Cathepsin-L” value (Cathepsin-L) of the same molecule?
Answer: Its value is “about 38 fold”.

Question: What about the “IC50 in intact Pala cells” value [1] of the same molecule?
Answer: The value was “slightly larger IC50 values”.
